{
  "source": "paper PMC4332989",
  "about": "(Cellular signalling, 2014)",
  "key": {"CB1R [1]": {"molecular_target": "T1, CB1R (Mus musculus, UniProt P47746)", "T1 sequence (P47746 whole entry)": "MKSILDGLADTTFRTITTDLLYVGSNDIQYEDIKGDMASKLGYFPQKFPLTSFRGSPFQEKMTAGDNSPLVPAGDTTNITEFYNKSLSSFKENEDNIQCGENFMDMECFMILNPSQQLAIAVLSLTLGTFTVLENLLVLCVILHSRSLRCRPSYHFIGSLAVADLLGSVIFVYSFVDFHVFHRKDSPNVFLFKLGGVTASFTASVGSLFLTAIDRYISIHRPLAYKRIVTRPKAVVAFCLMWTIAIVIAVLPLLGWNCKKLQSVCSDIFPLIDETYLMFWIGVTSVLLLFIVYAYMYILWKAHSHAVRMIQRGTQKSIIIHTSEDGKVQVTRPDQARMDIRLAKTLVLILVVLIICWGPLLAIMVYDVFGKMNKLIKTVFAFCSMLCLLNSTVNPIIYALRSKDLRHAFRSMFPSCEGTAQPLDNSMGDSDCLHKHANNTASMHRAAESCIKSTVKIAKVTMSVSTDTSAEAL", "assay": "cell-based", "conditions": "for EC50: EC50, inhibition of forskolin-stimulated cAMP accumulation, 1 μM forskolin"}, "CB1R [2]": {"molecular_target": "T1, CB1R", "format": "cell-based", "conditions": "for agonist-stimulated enhancement in phosphoERK1/2 levels: over basal (Fig. 4); for agonist-stimulated maximal ERK1/2 phosphorylation: 5 min (Fig. 4B); for stimulated ERK1/2 phosphorylation: 5 min (Fig. 5B)"}, "CB1R [3]": {"test_system": "CB1R", "assay": "On-cell-Western CB1R cell surface density in N18TG2 clones", "format": "cell-based, mouse"}, "CB1R coupling to Gαi3": {"molecular_target": "CB1R coupling to Gαi3 (Mus musculus, UniProt P47746)", "sequence (P47746 whole entry)": "as above", "conditions": "100 nM"}, "CB1R coupling to Gαo": {"molecular_target": "CB1R coupling to Gαo (Mus musculus, UniProt P47746)", "sequence (P47746 whole entry)": "as above", "conditions": "100 nM"}, "CB1R coupling to Gαi1": {"molecular_target": "CB1R coupling to Gαi1 (Mus musculus, UniProt P47746)", "sequence (P47746 whole entry)": "as above", "conditions": "100 nM"}, "CB1R coupling to Gαi2": {"molecular_target": "CB1R coupling to Gαi2 (Mus musculus, UniProt P47746)", "sequence (P47746 whole entry)": "as above", "conditions": "100 nM"}, "[4]": {"conditions": "WT, Control or CRIP1a KD membranes"}},
  "note": "Like-named read-outs stand apart in the source and are kept apart here.",
  "data": [
    {"molecule": "C=C[C@@]1(C)CC(=O)[C@]2(O)[C@@]3(C)[C@@H](O)CCC(C)(C)[C@@H]3[C@H](O)[C@H](OC(C)=O)[C@@]2(C)O1", "note": "[forskolin]", "values": [
      {"measurement": "stimulation of cAMP accumulation over vehicle", "setting": "CB1R [1]; 1 μM, 4 min, WT, Control, CRIP1a XS, CRIP1a KD", "value": "to the same extent in all cell lines tested"}
    ]},
    {"molecule": "CCCCC/C=C\\C/C=C\\C/C=C\\C/C=C\\CCCC(=O)N[C@H](C)CO", "note": "[mAEA, (R)-N-(2-Hydroxy-1-methylethyl)-5Z,8Z,11Z,14Z-eicosatetraenamide]", "values": [
      {"measurement": "ERK phosphorylation as share of the response observed with a CB1R full agonist", "setting": "CB1R [2]; N18TG2 WT cells, 10 nM, 5 min", "value": "~ 30%"},
      {"measurement": "agonist-stimulated enhancement in phosphoERK1/2 levels", "setting": "CB1R [2]; N18TG2 WT cells, 10 nM, 5 min", "value": "12±2", "unit": "%"},
      {"measurement": "effect on cAMP accumulation", "setting": "CB1R [1]; all clones, not altered by differences in the expression of CRIP1a (Fig. 7B)", "value": "concentration-dependent attenuation"}
    ]},
    {"molecule": "O=C(NN=Cc1ccc(O)c(O)c1)c1cc2ccccc2cc1O", "note": "[Dynasore, 3-Hydroxynaphthalene-2-carboxylic acid (3,4-dihydroxybenzylidene)hydrazide]", "values": [
      {"measurement": "effect on CP55940-stimulated phosphorylation of ERK1/2", "setting": "CB1R [2]; WT, CRIP1a-XS and KD clones, Dynasore 80 μM, 30 min preincubation, CP55940 10 nM", "value": "completely blocked"}
    ]},
    {"molecule": "Cc1c(C(=O)c2cccc3ccccc23)c2cccc3c2n1C(CN1CCOCC1)CO3", "note": "(stereo not drawn) [WIN55212-2, [2,3-dihydro-5-methyl-3-[(4-morpholinyl)methyl]pyrrolo[1,2,3-de]-1,4-benzoxazin-6-yl](1-naphthyl)methanone]", "values": [
      {"measurement": "agonist-stimulated enhancement in phosphoERK1/2 levels", "setting": "CB1R [2]; N18TG2 WT cells, 10 nM, 5 min", "value": "36±5", "unit": "%"}
    ]},
    {"molecule": "C[C@@H]1C[C@@H]([C@H](O)CC2CC(=O)NC(=O)C2)C(=O)[C@@H](C)C1", "note": "[cycloheximide]", "values": [
      {"measurement": "effect on CB1R plasma membrane density", "setting": "CB1R [3]; CRIP1a XS or KD cells, 50 μM, 2 h pre-treatment (data not shown)", "value": "failed to alter"}
    ]},
    {"molecule": "CCCCCCCCCCC[C@@H](C[C@@H]1OC(=O)[C@H]1CCCCCC)OC(=O)[C@H](CC(C)C)NC=O", "note": "[THL, tetrahydrolipstatin]", "values": [
      {"measurement": "effect on total or cell surface levels of CB1R", "setting": "CB1R [3]; THL pretreatment 1 μM, 2 h (data not shown)", "value": "did not change"}
    ]},
    {"molecule": "CCCCCCC(C)(C)c1ccc([C@@H]2C[C@H](O)CC[C@H]2CCCO)c(O)c1", "note": "[CP55940, (−)-cis-3-[2-Hydroxy-4-(1,1-dimethyl-heptyl)phenyl]-trans-4-(3-hydroxypropyl)cyclohexanol]", "values": [
      {"measurement": "agonist-stimulated maximal ERK1/2 phosphorylation", "setting": "CB1R [2]; CRIP1a KD2C cells, 10 nM", "value": "63±8", "unit": "%"},
      {"measurement": "agonist-stimulated maximal ERK1/2 phosphorylation", "setting": "CB1R [2]; CRIP1a KD2F cells, 10 nM", "value": "59±4", "unit": "%"},
      {"measurement": "stimulated ERK1/2 phosphorylation", "setting": "CB1R [2]; KD2C cells, 10 nM", "value": "68±4", "unit": "%"},
      {"measurement": "stimulated ERK1/2 phosphorylation", "setting": "CB1R [2]; KD2C cells, 100 nM", "value": "58±5", "unit": "%"},
      {"measurement": "stimulated ERK1/2 phosphorylation", "setting": "CB1R [2]; KD2F cells, 10 nM", "value": "73±5", "unit": "%"},
      {"measurement": "stimulated ERK1/2 phosphorylation", "setting": "CB1R [2]; KD2F cells, 100 nM", "value": "62±6", "unit": "%"},
      {"measurement": "agonist-stimulated enhancement in phosphoERK1/2 levels", "setting": "CB1R [2]; N18TG2 WT cells, 10 nM, 5 min", "value": "45±6", "unit": "%"},
      {"measurement": "time of rapid increase in phosphoERK1/2 levels", "setting": "CB1R [2]; WT, CRIP1a-XS and KD cells, 10 nM", "value": "≤ 5", "unit": "min"},
      {"measurement": "EC50", "setting": "CB1R [1]; CRIP1a KD cells, 4 min", "value": 0.2, "unit": "nM"},
      {"measurement": "EC50", "setting": "CB1R [1]; CRIP1a over-expression (XS) cells, 4 min", "value": 1.6, "unit": "nM"},
      {"measurement": "EC50", "setting": "CB1R [1]; N18TG2 WT cells, 4 min", "value": 3.4, "unit": "nM"},
      {"measurement": "stimulated [35S]GTPγS binding to Gαi3", "setting": "CB1R coupling to Gαi3; CRIP1a KD membranes", "value": "103±22", "unit": "% over basal"},
      {"measurement": "stimulated [35S]GTPγS binding to Gαi3", "setting": "CB1R coupling to Gαi3; CRIP1a XS membranes", "value": "10±12", "unit": "% over basal"},
      {"measurement": "stimulated [35S]GTPγS binding to Gαi3", "setting": "CB1R coupling to Gαi3; Control clone membranes", "value": "62±21", "unit": "% over basal"},
      {"measurement": "stimulated [35S]GTPγS binding to Gαi3", "setting": "CB1R coupling to Gαi3; WT membranes", "value": "79±18", "unit": "% over basal"},
      {"measurement": "enhancement in [35S]GTPγS binding to Gαo", "setting": "CB1R coupling to Gαo; CRIP1a KD membranes", "value": "79±21", "unit": "% over basal"},
      {"measurement": "enhancement in [35S]GTPγS binding to Gαo", "setting": "CB1R coupling to Gαo; CRIP1a XS membranes", "value": "4±3", "unit": "% over basal"},
      {"measurement": "enhancement in [35S]GTPγS binding to Gαo", "setting": "CB1R coupling to Gαo; WT membranes", "value": "49±9", "unit": "% over basal"},
      {"measurement": "stimulation of [35S]GTPγS binding to Gαi1", "setting": "CB1R coupling to Gαi1; CRIP1a XS membranes", "value": "128±54", "unit": "% above basal"},
      {"measurement": "binding of Gαi1 to CB1R following treatment", "setting": "CB1R coupling to Gαi1; [4]", "value": "no differences"},
      {"measurement": "stimulation of [35S]GTPγS binding to Gαi2", "setting": "CB1R coupling to Gαi2; CRIP1a XS membranes", "value": "753±316", "unit": "% above basal"},
      {"measurement": "binding of Gαi2 to CB1R following treatment", "setting": "CB1R coupling to Gαi2; [4]", "value": "no differences"}
    ]}
  ]
}
